Experimental data reported in US12240854B2, “TRAF 6 inhibitors” (Helmholtz Zentrum München - Deutsches Forschungszentrum für …, priority 2018, dated 2025).
“Also recorded” adds a separate entry of the source.

How the values were obtained:
[1] = tested on: IMQ-induced psoriasis in Balb/C mice; assay: Imiquimod (IMQ)-induced psoriasis mouse model; format: in vivo
Experimental: To evaluate the anti-inflammatory activity of the compound C25-140 (compound 3), an Imiquimod (IMQ)-induced psoriasis mouse model was conducted by Washington Biotechnology, Inc. (Baltimore, USA). Per group, 8 male Balb/C mice were shaved in the back (1.5 cm×2 cm) and IMQ and C25-140 were applied topically to the shaved back and the right ear daily for 6 days. Thereby, C25-140 was dissolved in acetone and applied at a total dosage of 500 μg per day (2×250 μg). Mice were monitored and daily scores (erythema, scaling and thickness of back skin) were independently collected on a scale from 0 to 4: 0=none; 1=slight; 2=moderate; 3=marked and 4=very marked. Ear thickness was measured by electronic calipers as an indicator of edema. IL-17 cytokine secretion of the right ear tissue was measured by ELISA.

E6AP = biological target: T1, E6AP (Homo sapiens, UniProt Q05086); assay: In vitro ubiquitination assay, E6AP ubiquitin ligase kit; format: biochemical
T1 construct: purchased Boston Biochem
Experimental: For analysis of cIAP1, MDM2, TRIM63, RNF4, ITCH and E6AP mediated poly-ubiquitination, the respective ubiquitin ligase kit from Boston Biochem (K-102, K-260, K-200B, K-220, K-240 and K-270) was used. Here, reaction buffer, E1, E2 and E3 enzyme (and p53 substrate in case of MDM2) were mixed and pre-incubated with compound or DMSO for 5 minutes at room temperature before adding Mg^2+-ATP and mono-ubiquitin for reaction start. Ubiquitination was visualized by Western Blot analyses.

[2] = tested on: TCR target genes IL-2 and TNFα in Jurkat T-cells; assay: mRNA expression (qRT-PCR) in Jurkat T-cells; format: cell-based, human; details: PMA/Ionomycin
Experimental: For MEF cells, 1.2×10^5 cells per sample were seeded, treated with compound for 6 hours and stimulated with either IL-1β or TNFα for 60 minutes. Jurkat T-cells and primary mouse CD4^+ T-cells were seeded at 2×10^5 cells per sample, also treated with compound for 6 hours and stimulated with PMA/lonomycin for 3 hours. RNA was isolated according to the manufacturer's protocol of the Qiagen RNeasy Kit (MEF cells) or the STRATEC INVITRAP® SPIN UNIVERSAL RNA MINI KIT (Jurkat T-cells). The isolation of mRNA from […] white adipose tissue from DIO mice was performed using TRIzol® Reagent according to manufacturer's instruction. To clear the isolated RNA from genomic DNA, samples (up to 5 μg RNA) were treated with RQ1 RNase-Free DNaseI (Promega) as described in the technical manual. For the reverse transcription of RNA into cDNA, the DNaseI digested RNA samples were processed using the SuperScript III First Strand cDNA Synthesis System (Invitrogen/ThermoFisher Scientific) following the manufacturer's protocol. […] For quantification of cDNA in the samples, the LightCylcer480 (Roche) and the KAPA SYBR FAST qPCR Kit were used. For relative quantification, the ΔΔCp method first described by Pfaffl (Pfaffl, M. W., A new mathematical model for relative quantification in real-time RT-PCR. Nucleic Acids Res, 2001. 29(9): p. e45) was applied.

Jurkat T-cells = assay: CellTiter-Glo viability assay, Jurkat T-cells; format: cell-based, human; details: 6 or 24 hours incubation
Experimental: For cell viability experiments using the CellTiter-Glo® 2.0 system (Promega), MEF cells (1.2×10^3 cells/well), HepG2 cells (4×10^3 cells/well) and Jurkat T-cells (5×10^3 cells/well) were seeded in 384 well plates. After 18 hours, cells were treated with compounds using the Sciclone G3 automation system. After 6 or 24 hours incubation, the luciferase measurement was performed according to the manufacturer's manual.

hERG = biological target: T2, hERG (Homo sapiens, UniProt Q12809); assay: ADME: hERG predictor assay; format: in vitro ADME
T2 construct: Bienta Enamine Biology Services
Experimental: All ADME (plasma stability, plasma protein binding, microsomal stability, Log D, Caco-2 assay, CYP450 inhibition and hERG predictor assay) as well as pharmacokinetic studies (Tmax, Cmax, AUC0-240min, Mean Residence Time, Elimination half life, Elimination rate constant, Volume of Distribution and Clearance) of C25-140 (compound 3) were conducted by Bienta Enamine Biology Services of Bienta/Enamine Ltd.

[3] = tested on: TRAF6 auto-ubiquitination in MEF cells; assay: Immunoprecipitation of TRAF6 for endogenous ubiquitination, MEF cells; format: cell-based, mouse
Experimental: 2.5×10^6 MEF cells were seeded, treated with compound for 6 hours and stimulated with IL-1β (3.5 ng/mL) for 10 minutes. Cells were lysed in Co-IP lysis buffer containing 1% SDS to eliminate all cellular interactions. After cell lysis and removal of input samples, the samples were diluted to 0.1% SDS and incubated with 5 μL TRAF6 antibody EP591Y (Abcam) and immunoprecipitated with Protein-G-Sepharose beads. After washing of the beads in Co-IP wash buffer, TRAF6 protein was eluted and levels of TRAF6 ubiquitination were detected by Western Blot analysis.

80 cancer cell lines = assay: Omniscreen cancer cell line panel, CellTiter-Glo; format: cell-based; details: 9 dose levels from 80 μM, 72 hours
Experimental: The effect of C25-140 on cell viability of 80 cancer cell lines using the CellTiter-Glo luminescent cell viability assay was conducted at CrownBioscience Inc. at the testing facility in Beijing. Here, 80 selected cell lines were cultured in media supplemented with 10-15% FBS, in the temperature of 37° C., 5% CO2 and 95% humidity. Culture medium was purchased from GIBCO or Sigma, USA. The cells were treated with C25-140 in 9 dose levels starting at 80 μM with 3.16-fold serial dilutions. Cisplatin served as a reference control and started with a top working concentration of 100 μM. Test samples were incubated for 72 hours and cell viability was measured by the CellTiter-Glo assay.

[4] = topical, 2x250 μg per day, 6 days
[5] = topical, 2x250 μg per day, 6 days, listed as 25-140

T1 sequence (Q05086 whole entry): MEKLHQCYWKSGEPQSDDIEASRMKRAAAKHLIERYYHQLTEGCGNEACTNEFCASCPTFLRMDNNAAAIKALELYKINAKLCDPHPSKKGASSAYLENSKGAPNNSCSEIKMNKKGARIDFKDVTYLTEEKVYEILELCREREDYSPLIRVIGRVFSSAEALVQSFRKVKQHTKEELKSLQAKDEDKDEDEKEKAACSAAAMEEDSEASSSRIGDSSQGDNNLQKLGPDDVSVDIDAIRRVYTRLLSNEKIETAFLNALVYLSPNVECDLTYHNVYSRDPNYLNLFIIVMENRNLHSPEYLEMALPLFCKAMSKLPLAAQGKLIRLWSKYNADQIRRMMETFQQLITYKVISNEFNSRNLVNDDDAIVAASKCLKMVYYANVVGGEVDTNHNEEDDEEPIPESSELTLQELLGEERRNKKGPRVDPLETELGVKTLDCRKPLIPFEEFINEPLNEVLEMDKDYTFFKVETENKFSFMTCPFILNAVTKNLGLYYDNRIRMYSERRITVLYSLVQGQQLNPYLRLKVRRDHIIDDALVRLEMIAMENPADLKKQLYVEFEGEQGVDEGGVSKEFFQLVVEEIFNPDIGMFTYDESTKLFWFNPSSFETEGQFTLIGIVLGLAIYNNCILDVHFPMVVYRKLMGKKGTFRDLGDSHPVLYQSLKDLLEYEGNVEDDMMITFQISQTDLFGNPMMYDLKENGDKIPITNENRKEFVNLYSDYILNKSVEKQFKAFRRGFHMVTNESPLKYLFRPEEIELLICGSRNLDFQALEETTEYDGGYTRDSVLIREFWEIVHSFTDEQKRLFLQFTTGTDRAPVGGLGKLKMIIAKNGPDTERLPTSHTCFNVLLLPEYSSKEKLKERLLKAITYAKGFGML
T2 sequence (Q12809 whole entry): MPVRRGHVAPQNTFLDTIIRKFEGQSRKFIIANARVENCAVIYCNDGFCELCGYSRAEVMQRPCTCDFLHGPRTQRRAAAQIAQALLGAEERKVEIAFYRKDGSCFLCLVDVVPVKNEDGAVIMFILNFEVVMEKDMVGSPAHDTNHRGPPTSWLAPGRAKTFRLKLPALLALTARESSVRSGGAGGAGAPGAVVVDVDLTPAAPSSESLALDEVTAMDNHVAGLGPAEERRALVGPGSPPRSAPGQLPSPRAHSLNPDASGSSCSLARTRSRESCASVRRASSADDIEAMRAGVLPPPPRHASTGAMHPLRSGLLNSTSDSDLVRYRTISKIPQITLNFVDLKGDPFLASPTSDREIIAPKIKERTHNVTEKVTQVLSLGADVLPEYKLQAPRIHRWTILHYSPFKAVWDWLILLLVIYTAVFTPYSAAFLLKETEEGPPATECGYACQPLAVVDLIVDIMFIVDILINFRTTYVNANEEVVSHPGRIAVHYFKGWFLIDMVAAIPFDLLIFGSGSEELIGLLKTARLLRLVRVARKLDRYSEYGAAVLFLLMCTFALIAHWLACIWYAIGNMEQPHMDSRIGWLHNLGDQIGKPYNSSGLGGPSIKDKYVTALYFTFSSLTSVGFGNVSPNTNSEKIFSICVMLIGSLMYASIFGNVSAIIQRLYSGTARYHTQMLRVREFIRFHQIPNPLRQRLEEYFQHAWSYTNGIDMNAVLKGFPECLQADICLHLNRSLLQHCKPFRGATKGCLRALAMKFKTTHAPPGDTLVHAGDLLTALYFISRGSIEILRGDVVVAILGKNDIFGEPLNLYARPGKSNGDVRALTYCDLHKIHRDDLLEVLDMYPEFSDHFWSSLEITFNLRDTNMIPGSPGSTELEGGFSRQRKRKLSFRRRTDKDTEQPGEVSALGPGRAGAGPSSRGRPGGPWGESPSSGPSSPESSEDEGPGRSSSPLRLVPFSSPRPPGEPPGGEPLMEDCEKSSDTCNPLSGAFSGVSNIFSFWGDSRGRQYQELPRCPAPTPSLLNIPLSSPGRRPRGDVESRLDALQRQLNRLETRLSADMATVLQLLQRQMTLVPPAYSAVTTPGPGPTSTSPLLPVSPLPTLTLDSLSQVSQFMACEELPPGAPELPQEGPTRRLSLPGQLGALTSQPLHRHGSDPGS

Structure (SMILES): Cc1nn(-c2ccc3nnc(C)n3n2)c(C)c1CCC(=O)N1CCC(Cc2ccccc2)CC1 [Example C25-140, 1-(4-Benzylpiperidin-1-yl)-3-(3,5-dimethyl-1-(3-methyl-[1,2,4]-triazolo-[4,3-b]-pyridazin-6-yl)-1H-pyrazol-4-yl)-propan-1-one]
- psoriasis symptoms / disease outcome (in words) ([1]; IMQ-induced psoriasis): ameliorates disease outcomes; also recorded: ameliorates symptoms
- IL-17 cytokine in right ear tissue ([1]; day 6, ELISA): significantly reduced; also recorded: decreased
- cumulative score [1, 4]: reduces
- ear thickness [1, 4]: significantly reduced
- erythema score of the back [1, 4]: improvement of the disease symptoms
- scaling score [1, 4]: improvement of the disease symptoms
- thickness score of the back [1, 4]: significantly reduce
- cumulative score [1, 5]: significantly reduce
- ear thickness [1, 5]: improvement of the disease symptoms
- S5A ubiquitination by E6AP (E6AP): not influenced; also recorded: not affected
- mRNA levels of TCR target genes IL-2 and TNFα [2]: reduced; also recorded: dose-dependently decreased
- metabolic activity and cell viability (Jurkat T-cells): did not considerably impact cell viability; also recorded: does not considerably affect metabolic activity and cell viability up to 50 μM; also recorded: at the highest dose of 100 μM toxicity is noticeable
- hERG inhibition (hERG): does not very much inhibit hERG
- IL-1β-induced auto-ubiquitination of TRAF6 [3]: reduced TRAF6 auto-ubiquitination
- viability of control cell lines HS-5 and MCF 10A (80 cancer cell lines): not affected at all
- viability of cancer cell lines (80 cancer cell lines; 78 cancer cell lines): major effect is on cancer cells of blood origin; also recorded: Various cancer cell lines died; also recorded: Major effects were visible in cancer cells of blood origin
